Experimental data: EP0200345A2, “Anti-allergic or anti-inflammatory substituted (hetero)-aralkylamino-ortho-phenols” (BEECHAM GROUP PLC, priority 1985, dated 1986)
Counter-ions that a name gives are not always drawn.

Biological target: T1, RBL-1 5-lipoxygenase (Rattus norvegicus, UniProt P12527)
T1 construct: 5-Lipoxygenase enzyme was prepared as a 10,000g supernatant from RBL-1 cells; endogenous in cells; host or cells: RBL-1 cells (10,000g supernatant of the homogenate)
T1 sequence (P12527 1-673): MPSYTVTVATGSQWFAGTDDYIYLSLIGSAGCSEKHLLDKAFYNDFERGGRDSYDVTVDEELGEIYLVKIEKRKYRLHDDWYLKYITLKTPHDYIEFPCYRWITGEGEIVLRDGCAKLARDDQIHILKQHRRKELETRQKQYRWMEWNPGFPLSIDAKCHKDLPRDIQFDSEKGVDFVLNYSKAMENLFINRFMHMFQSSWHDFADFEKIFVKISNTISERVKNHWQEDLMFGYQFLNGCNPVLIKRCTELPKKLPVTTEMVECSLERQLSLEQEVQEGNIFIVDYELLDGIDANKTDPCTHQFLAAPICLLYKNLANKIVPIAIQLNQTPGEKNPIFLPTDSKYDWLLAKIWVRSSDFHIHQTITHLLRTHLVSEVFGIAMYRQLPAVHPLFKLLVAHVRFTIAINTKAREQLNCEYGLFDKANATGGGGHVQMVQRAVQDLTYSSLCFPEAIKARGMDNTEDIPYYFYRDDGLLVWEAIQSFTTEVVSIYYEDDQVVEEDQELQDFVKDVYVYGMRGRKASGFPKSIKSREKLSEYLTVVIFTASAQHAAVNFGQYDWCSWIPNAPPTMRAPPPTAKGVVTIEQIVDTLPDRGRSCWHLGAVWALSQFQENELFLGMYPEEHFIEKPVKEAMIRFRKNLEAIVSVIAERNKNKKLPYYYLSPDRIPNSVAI
Test: RBL-1 5-lipoxygenase screen
Format: biochemical
Settings: 10,000g supernatant from RBL-1 cells, formation of 5-HETE and 5,12-diHETE; for inhibition at 0.05 µM: compound concentration 0.05 µM; for inhibition at 1 µM: compound concentration 1 µM; for inhibition at 20 µM: compound concentration 20 µM
Protocol: 1) RBL-1 5-LIPOXYGENASE SCREEN
5-Lipoxygenase enzyme was prepared as a 10,000g supernatant from RBL-1 cells by the method of Jakschik (Jakschik, B.A., F.F. Sun, L.M. Lee, and M.M. Steinhoff, 1980, Biochem. Biophys. Res. Comm. 95, 103). The 10,000g supernatant was diluted with homogenization buffer to the equivaleni of 1.5 -2.5 x 10^7 cells. ml.-' and made 2mM with respect to CaCl2. Aliquots of 0.5ml were then dispensed into tubes, and incubated at 29°C with 5ul ethanol or compound in ethanol at the desired concentration for 2min. Then [1-"C] arachidonic acid was added in buffer to give a final concentration of 6.3uM and 0.2uCi per incubation, and the reaction continued at 29°C for 2 min. The reaction was terminated by adding 1ml of acetone and cooling on ice, 0.5ml of ice-cold saline and 100ul of 2N formic acid were added, and the mixture was extracted with 2 ^x 2ml of chloroform. The extract was stored under N, at -20°C until analysis by chromatography. Activity was measured as the percentage of total radioactivity found in 5-HETE and 5,12-diHETE, and inhibition calculated as the decrease information of the sum of these two species in compound-treated incubates relative to control incubations.

| inhibition at 0.05 µM | Structure (SMILES) | other results |
| --- | --- | --- |
| 80% | Cc1ccc(O)c(NCc2ccc([N+](=O)[O-])cc2)c1 [Example 25] | – |
| 86% | Cc1ccc(O)c(NCCc2ccccc2)c1 [Example 28, 2-phenylethylamino-4-methylphenol] | – |
| 20% | CCc1ccc(O)c(NCc2ccccc2)c1 [Example 24, 2-phenylmethylamino-4-ethylphenol] | – |
| 76% | Cc1ccc(O)c(NCc2cccc(F)c2)c1 [Example 16, 2-[(3-fluorophenyl)methyl]amino-4-methyl phenol] | – |
| 81% | Oc1ccc(Cl)cc1NCc1ccccc1 [Example 22, 2-phenylmethylamino-4-chlorophenol] | – |
| 34% | Cc1ccc(O)c(NC(C)c2ccccc2)c1 (stereo not drawn) [Example 17, 2 -(α -Methylbenzyl)amino -4 -methylphenol] | – |
| 35% | CC(C)(C)c1ccc(O)c(NCc2ccccc2)c1 [Example 21, 2-phenylmethylamino-4-tert-butylphenol] | – |
| 80% | Cc1ccc(O)c(NCc2ccc(C(C)C)cc2)c1 [Example 26] | – |
| 12% | Cc1ccc(O)c(NCc2ccc(O)cc2)c1 [Example 27, 2-[(4-hydroxyphenyl)methyl]amino-4-methylphenol] | – |
| 85% | Cc1ccc(O)c(NCc2cccc(Cl)c2)c1 [Example 15] | – |
| 77% | CC(C)c1ccc(O)c(NCc2ccccc2)c1 [Example 20, 2-phenylmethylamino-4-iso-propylphenol] | – |

Further lines, the compound ahead of its results:

| Structure (SMILES) | inhibition at 0.05 µM | other results |
| --- | --- | --- |
| Cc1ccc(O)c(NCc2ccc(Cl)cc2)c1 [Example 8, 2-[(4-chlorophenyl)methyl]amino-4-methylphenol] | 91.4% | – |
| Cc1ccc(O)c(NCc2ccc(F)cc2)c1 [Example 11, 2-[(4-fluorophenyl)methyl]amino-4-methyl phenol] | 93.2% | – |
| Cc1ccc(O)c(NCc2ccc(C#N)cc2)c1 [Example 5, 2-[(4-Cyanophenyl)methyl]amino-4-methylphenol] | 42.8% | – |
| Cc1ccc(CNc2cc(C)ccc2O)cc1 [Example 6, 2-[(4-Methylphenyl)methyl]amino-4-methylphenol] | 93.4% | – |
| O=C(c1ccccc1)c1cc(NCc2ccccc2)c(O)cc1O [Example 29, 4-Benzoyl-6-(Phenylmethylamino)resorcinol hydrochloride] | – | inhibition at 1 µM: 94% |
| Cc1ccc(O)c(NCc2ccco2)c1 [Example 9, 2-[(2-furyl)methyl]amino-4-methylphenol] | 31.4% | – |
| Cc1ccc(O)c(NCc2ccccc2)c1 [Example 3, 2-Phenylmethyfamino-4-methylphenol] | – | inhibition at 20 µM: 95.4% |
| Oc1ccc(Br)cc1NCc1ccccc1 [Example 23, 2-phenylmethylamino-4-bromophenol] | – | inhibition at 20 µM: 98% |
| Cc1ccc(O)c(N(Cc2ccccc2)Cc2ccccc2)c1 [Example 30, 2-Dibenzylamino-4-methylphenol] | – | inhibition at 1 µM: 91% |
| COc1ccc(CNc2cc(C)ccc2O)cc1 [Example 7, 2-[(4-methoxyphenyl)methyl]amino-4-methylphenol] | 61.7% | – |
| Cc1ccc(O)c(NCc2cccs2)c1 [Example 13, 2-[(thien-2-yl)methyl]amino-4-methyl phenol] | 49.7% | – |
| Cc1ccc(O)c(NCc2ccc(Br)cc2)c1 [Example 14, 2-[(4-bromophenyl)methyl]amino-4-methyl phenol] | 64.2% | – |
| Cc1ccc(O)c(NCc2cccc(C(F)(F)F)c2)c1 [Example 10, 2-[(3-trifluoromethylphenyl)methyl]amino-4-methylphenol] | 89.5% | – |
| Cc1ccc(O)c(NCc2ccc(Cl)c(Cl)c2)c1 [Example 12, 2-[(3,4 dichlorophenyl)methyl]amino-4-methyl phenol] | 73.7% | – |
